Source: the Kinase Knowledgebase extract (Sharma et al. 2016)
Where “and” joins values, the source holds several entries; their conditions need not be identical. Equal values may be shown once.

Biological target: ROCK2 (human) (UniProt O75116)
Test: Inhibition of ROCK2 Kinase Activity

ROCK2 (human), sequence (O75116 whole entry, looked up): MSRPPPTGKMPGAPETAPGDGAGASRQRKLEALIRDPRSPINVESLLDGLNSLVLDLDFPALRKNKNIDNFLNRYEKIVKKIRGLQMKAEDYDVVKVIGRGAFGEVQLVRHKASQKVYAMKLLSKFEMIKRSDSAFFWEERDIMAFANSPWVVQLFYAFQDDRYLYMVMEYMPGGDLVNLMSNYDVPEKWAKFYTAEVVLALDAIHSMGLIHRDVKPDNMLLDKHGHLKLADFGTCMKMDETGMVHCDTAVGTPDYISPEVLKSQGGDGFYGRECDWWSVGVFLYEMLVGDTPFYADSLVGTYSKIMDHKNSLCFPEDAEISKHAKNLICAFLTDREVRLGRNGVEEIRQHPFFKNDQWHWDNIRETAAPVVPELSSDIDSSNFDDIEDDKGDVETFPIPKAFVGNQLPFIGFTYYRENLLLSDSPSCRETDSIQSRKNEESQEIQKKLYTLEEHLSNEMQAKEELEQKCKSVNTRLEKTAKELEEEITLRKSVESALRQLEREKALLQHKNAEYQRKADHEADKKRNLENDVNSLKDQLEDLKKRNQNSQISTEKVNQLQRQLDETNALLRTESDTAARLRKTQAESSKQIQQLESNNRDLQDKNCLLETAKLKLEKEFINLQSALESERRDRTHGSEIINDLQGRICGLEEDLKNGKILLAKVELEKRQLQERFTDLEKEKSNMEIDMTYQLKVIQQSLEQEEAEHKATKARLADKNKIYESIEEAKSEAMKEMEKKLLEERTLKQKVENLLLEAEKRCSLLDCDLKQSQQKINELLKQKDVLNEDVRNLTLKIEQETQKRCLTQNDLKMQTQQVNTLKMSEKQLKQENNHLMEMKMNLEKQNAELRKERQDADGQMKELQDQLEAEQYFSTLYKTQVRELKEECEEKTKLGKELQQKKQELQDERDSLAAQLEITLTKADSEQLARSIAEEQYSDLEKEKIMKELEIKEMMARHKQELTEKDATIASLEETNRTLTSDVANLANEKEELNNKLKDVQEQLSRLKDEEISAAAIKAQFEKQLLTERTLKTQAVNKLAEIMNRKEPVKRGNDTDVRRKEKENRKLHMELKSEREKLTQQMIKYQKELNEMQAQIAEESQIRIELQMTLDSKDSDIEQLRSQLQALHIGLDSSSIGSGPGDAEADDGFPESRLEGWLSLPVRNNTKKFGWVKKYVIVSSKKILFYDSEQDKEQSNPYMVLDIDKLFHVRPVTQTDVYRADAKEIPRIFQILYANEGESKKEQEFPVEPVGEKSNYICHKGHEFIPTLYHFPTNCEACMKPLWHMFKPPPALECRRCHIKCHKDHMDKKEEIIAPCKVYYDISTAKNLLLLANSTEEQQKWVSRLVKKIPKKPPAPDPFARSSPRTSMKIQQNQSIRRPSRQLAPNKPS

| IC50 | Structure (SMILES) |
| --- | --- |
| 10 to 100 nM | CC(N)(c1ccc(F)cc1)C1CCC(Oc2cc3cc[nH]c(=O)c3cc2Cl)CC1 (centres undefined) |
| 10 to 100 nM | N[C@H](c1ccccc1)[C@]1(c2ccccc2)CC[C@@H](Oc2cc3cc[nH]c(=O)c3cc2Cl)CC1 |
| 100 to 1000 nM | N[C@@H](c1ccccc1)[C@]1(c2ccccc2)CC[C@@H](Oc2cc3cc[nH]c(=O)c3cc2Cl)CC1 |
| ≤ 10 nM | CCC(N)[C@]1(c2ccc(C)c(OC)c2)CC[C@H](Oc2cc3cc[nH]c(=O)c3cc2Cl)CC1 (some centres undefined) |
| ≤ 10 nM | NC(c1ccc(F)cc1)C1CCC(Oc2cc3cc[nH]c(=O)c3cc2Cl)CC1 (centres undefined) |
| 10 to 100 nM | CCC(N)C1CCC(Oc2cc3cc[nH]c(=O)c3cc2Cl)CC1 (centres undefined) |
| ≤ 10 nM | COc1ccc(C(N)[C@H]2CC[C@@H](Oc3cc4cc[nH]c(=O)c4cc3Cl)CC2)cc1 (some centres undefined) |
| ≤ 10 nM | N[C@@H](c1ccc(F)cc1)C1CCC(Oc2cc3cc[nH]c(=O)c3cc2Cl)CC1 (some centres undefined) |
| 10 to 100 nM | COc1ccc(C(C)(N)C2CCC(Oc3cc4cc[nH]c(=O)c4cc3Cl)CC2)cc1 (centres undefined) |
| 10 to 100 nM | CC(N)(c1ccccc1)C1CCC(Oc2cc3cc[nH]c(=O)c3cc2Cl)CC1 (centres undefined) |
| 100 to 1000 nM | N[C@H](c1ccc(F)cc1)C1CCC(Oc2cc3cc[nH]c(=O)c3cc2Cl)CC1 (some centres undefined) |
| 100 to 1000 nM | CC(N)(C1CCCC1)C1CCC(Oc2cc3cc[nH]c(=O)c3cc2Cl)CC1 (centres undefined) |
| 10 to 100 nM | COc1ccc(C(N)[C@H]2CC[C@H](Oc3cc4cc[nH]c(=O)c4cc3Cl)CC2)cc1 (some centres undefined) |
| ≤ 10 nM and 10 to 100 nM | Cc1ccc(C(N)C2CCC(Oc3cc4cc[nH]c(=O)c4cc3Cl)CC2)cc1 (centres undefined) |
| 100 to 1000 nM | NC(C1CCC(Oc2cc3cc[nH]c(=O)c3cc2Cl)CC1)C1CC1 (centres undefined) |
| 100 to 1000 nM | CC(N)(C1CCC(Oc2cc3cc[nH]c(=O)c3cc2Cl)CC1)C1CC1 (centres undefined) |
| 100 to 1000 nM and 10 to 100 nM | CCC(N)(CC)C1CCC(Oc2cc3cc[nH]c(=O)c3cc2Cl)CC1 (centres undefined) |
| 10 to 100 nM | CCCC(C)(N)C1CCC(Oc2cc3cc[nH]c(=O)c3cc2Cl)CC1 (centres undefined) |
| 100 to 1000 nM | CCC(N)C1(c2ccc(F)cc2)CC(Oc2cc3cc[nH]c(=O)c3cc2Cl)C1 (centres undefined) |

| Structure (SMILES) | IC50 |
| --- | --- |
| CC[C@@H](N)[C@]1(c2ccccc2)CC[C@@H](Oc2cc3cc[nH]c(=O)c3cc2Cl)CC1 | 10 to 100 nM |
| CC[C@@H](N)[C@]1(c2ccc(F)cc2)CC[C@H](Oc2cc3cc[nH]c(=O)c3cc2Cl)CC1 | ≤ 10 nM |
| CC[C@@H](N)[C@]1(c2ccccc2)CC[C@H](Oc2cc3cc[nH]c(=O)c3cc2Cl)CC1 | ≤ 10 nM |
| CCC(N)[C@]1(c2cccc(Br)c2)CC[C@H](Oc2cc3cc[nH]c(=O)c3cc2Cl)CC1 (some centres undefined) | ≤ 10 nM |
| CC[C@H](N)[C@]1(c2ccccc2)CC[C@H](Oc2cc3cc[nH]c(=O)c3cc2Cl)CC1 | ≤ 10 nM |
